Assay results reported in patent publication US11353448B2, “Methods and compositions for quantifying metabolites and proteins from single cells” (CALIFORNIA INSTITUTE OF TECHNOLOGY, priority 2015, dated 2022).
“Also recorded” adds a separate entry of the source. Read-outs that look alike come from different tables or passages of the source.

Key:
U87/EGFRV3 cells = experiment: Glutamine analog uptake (Cyclodextrin-Cy3 / Adamantane-BHQ2 FRET readout); assay type: cell-based, human; details: 1 mM analog, 20 min; with glutamine at 4° C. and 37° C., without glutamine at 37° C.
Experimental: FIG. 5B is a graph of cell uptake experiments using the immunofluorescence assay depicted in FIG. 2C to assay Compounds 1-8 as shown in FIG. 5A in the presence of glutamine at 4° C. (left bars) and 37° C. (middle bars), and in the absence of glutamine at 37° C. (right bars), according to embodiments of the present invention.
U87/EGFRV3 single cells were resuspended in DMEM media or glutamine-free DMEM media (Thermo Fisher Scientific) with 1 mM of glutamine analog and incubated at 37° C. or 4° C. for 20 min. Subsequently, the cells were collected via centrifugation (500 g, 5 min) and washed with cold PBS for three times. Then, the cells were lysed using cell lysis buffer (Cell Signaling, Boston, Mass., U.S.A.). To quantify the analog uptake, the lysate was mixed with an Adamantane-BHQ2 solution (100 nM in water) incubated on the glass slide with surface hybridized Cyclodextrin-Cy3-DNA at room temperature for 1 hr. the glass slide was then washed and spin dried. The fluorescence signal on the glass slide was read out using an Axon GenePix 4400A scanner.

[1] = target: T1, SLC1A5 neutral amino acid transporter (Homo sapiens, UniProt Q15758); experiment: Uptake of Compound 3 with the SLC1A5 transporter inhibited (sodium free, siRNA); assay type: cell-based; details: U87 cells
T1 construct: Compound 3 was further analyzed for uptake in U87 cells; endogenous in cells; host or cells: U87 (U87/EGFRV3) glioblastoma cells
T1 sequence (Q15758 1-541): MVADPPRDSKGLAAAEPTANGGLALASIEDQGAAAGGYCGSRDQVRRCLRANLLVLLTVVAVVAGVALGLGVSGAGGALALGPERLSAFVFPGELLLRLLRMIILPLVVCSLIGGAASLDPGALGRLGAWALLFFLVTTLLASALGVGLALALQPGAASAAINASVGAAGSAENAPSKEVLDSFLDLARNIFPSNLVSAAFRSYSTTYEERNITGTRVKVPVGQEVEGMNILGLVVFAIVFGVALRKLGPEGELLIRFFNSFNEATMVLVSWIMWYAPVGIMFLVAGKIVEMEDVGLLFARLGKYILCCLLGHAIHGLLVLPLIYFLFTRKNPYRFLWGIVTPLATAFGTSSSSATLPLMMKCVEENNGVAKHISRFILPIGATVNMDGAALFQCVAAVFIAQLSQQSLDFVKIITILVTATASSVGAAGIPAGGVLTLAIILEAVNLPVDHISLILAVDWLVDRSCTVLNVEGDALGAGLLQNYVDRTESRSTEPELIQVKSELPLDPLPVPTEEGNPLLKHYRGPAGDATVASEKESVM
Experimental: In some embodiments of the present invention, a method for measuring glutamine uptake in a cell includes incubating the cell with a glutamine analog, followed by lysis of the cell, and quantification of the amount of the glutamine analog in the cell. […] These 8 glutamine analogs (adamantane conjugates) were assayed for their ability to substitute for glutamine. […] As such, the Compound 3 Ad-Glutamine analog is a validated substitute for glutamine.

U87 cells = experiment: Glutamine kit assay (Abcam, ab83389), cells incubated with Compound 3; assay type: cell-based, human; details: U87 cells alone vs incubated with Compound 3
cell growth = experiment: Cell toxicity of Compound 3 Ad-Glutamine analog (cell numbers normalized to control); assay type: cell-based; details: indicated concentrations, FIG. 5F
Source text: FIG. 5F is a graph showing cell toxicity of the Compound 3-Ad-Glutamine analog at the indicated concentrations with cell numbers normalized to the control sample, according to embodiments of the present invention.

GBM39 single cells = experiment: Validation of the Gluc-Bio uptake; assay type: cell-based, human; details: 20 ug/mL Gluc-Bio, 20 min; 17.5 mM vs 25 mM glucose; 37° C. vs 4° C.
Experimental: FIG. 4C is a graph of cell uptake experiments using the immunofluorescence assay depicted in FIG. 2B to assay Gluc-Bio uptake in GBM39 primary neurosphere cells at 37° C. in the presence of […] glucose and 25 mM glucose, and at 4° C. at 17.5 mM glucose as indicated, showing that Gluc-Bio competes with glucose, according to embodiments of the present invention.
GBM39 single cells were suspended in normal media (17.5 mM glucose) or high glucose media (25 mM glucose) at a concentration of 0.5 M cells/mL. These cells were incubated with 20 ug/mL of Gluc-Bio at 37° C. or 4° C. for 20 min. After incubation, cells were washed with cold PBS for three times and then lysed for quantifying the Gluc-Bio.

hexokinase = experiment: Coupled enzyme kinetics measurement (hexokinase/G6PDH, NADH absorption at 340 nm); assay type: biochemical
Source text: Enzymes and substrate solutions from a glucose assay kit (Sigma-Aldrich) were used without purification. […] First, hexokinase converts glucose into glucose-6-phosphate, which consumes one equivalent of ATP. Then, the glucose-6-phosphate is converted to gluconate-6-phosphate by glucose-6-phosphate dehydrogenase (G6PDH). At the same time, this process converts NAD to NADH, which has a distinct absorption band at 340 nm. By continuously measuring the solution absorption, the kinetics of the first reaction can be indirectly monitored. […] This will result in a much slower generation of NADH. […] This proves that Gluc-Bio can bind to hexokinase and could be a substrate. […] In this experiment, the amount of ATP was controlled to be much less than that of glucose. If Gluc-Bio is simply an inhibitor and cannot be converted by hexokinase, it will not consume the ATP pool in the solution, and the final amount of NADH will be the same as that of glucose alone.

U87EGFRvIII cells [2] = experiment: Growth curves under erlotinib; assay type: cell-based, human; details: 1 uM erlotinib
Source text: U87/EGFRV3 cells were provided by Prof.

GBM39 cells = experiment: SCBC multiplex metabolite/protein assay before and after erlotinib; assay type: cell-based, human; details: 24 h erlotinib treatment (1 μM)
Experimental: Using a SCBC as shown in FIGS. 1A and 1B and further disclosed herein, simultaneous quantification of a panel of metabolites and proteins, including cAMP, cGMP, glucose uptake, glutathione along with phosphofructokinase (PFK), phospho-acetyl-CoA Caraboxylase (pACAC), phospho-liver kinase B1 (pLKB1), phosphoinositide-dependent kinase 1 (PDK), hexokinase 2 (HK2), pyruvate kinase M2 (PKM2), and phospho-carbohydrate kinase family protein (pPFKB2) was performed in single cells separated from the GBM39 neurosphere tumor model. […] For the drug treatment, 1 million cells were suspended in 10 mL of media and were cultured for several days to form neurospheres. […] The cells were then treated for designated periods of time and processed for tests. Cell loading. The upper channels were briefly rinsed with cell culture medium to minimize perturbation to the cells. […] The suspension was loaded into the SCBC device and compartmentalized into 310 isolated microchambers with single cell or defined number of cells in each chamber. The cell loading step results in a random distribution of different numbers of cells in different chambers, the statistical distribution can be adjusted by varying the loading concentration and the flow speed. […] The extra cells were washed away by 1×PBST. The images of each chamber were recorded using a microscope-CCD camera and used for subsequent cell counting.

U87EGFRvIII cells [3] = system: U87EGFRvIII cells
Experimental: A multiplex assay incorporating the glutamine uptake assay according to embodiments of the present invention was performed using a SCBC platform in U87 human glioblastoma cells having amplified epidermal growth factor receptor (EGFR) expression.
U87/EGFRV3 cells were provided by Prof. Paul S. Mischel (UCSD, San Diego, U.S.A.) and cultured in Dulbecco's modified eagle media (DMEM, Gibco, ThermoFisher Scientific, Grand Island, N.Y., U.S.A.) supplemented with 10% of fetal bovine serum (Thermo Fisher Scientific) and 100 U/mL of penicillin and streptomycin in a humidified 5% CO2 (v/v) incubator, at 37° C.
In order to better understand the integrated single cell metabolic/proteomic data, a simplified semi-quantitative metabolic model (FIG. 16A) was developed. The focus of this model includes the glycolysis pathway and the TCA cycle, which cover the major contributors of cellular energy generation. Glucose is used by cells for many tasks, but by combining the measurement of glucose uptake with measurements of those enzymes that process glucose for energy production and lactate production, an estimation may be made of the contributions of glucose to glycolysis and to the TCA cycle (FIGS. 16A-16B). It assumed that each glucose molecule consumed yields 8 ATP equivalents through glycolysis, and an additional 22 ATP equivalents through the TCA cycle. The numbers here are not the actual ATP production number, but an energy-currency conversion. The glycolysis part generates 2 ATP and 2 NADH molecules per glucose, and each NADH is ultimately worth 3 ATP, thus making 8 ATP total. […] For glutamine that is taken up by the cell, there are multiple possible outcomes. It can enter the TCA cycle to generate energy, or it can be exported in exchange for other amino acids, or participate in biosynthesis of glutathione and proteins, as examples. On this basis, glutamine may be considered as a special currency, which can either be used directly by the cell to produce energy, or in exchange of other necessary nutrients or to perform some crucial metabolic function. From a global point of view, the active uptake of glutamine reflects a metabolic demand from the cell, regardless how it is used. In order to have an integrated picture of the potential energy production from glutamine and glucose, we simply assume that all glutamine participates in the TCA cycle, so that each glutamine molecule affords 8.5 ATP equivalents. To calculate the energy production for each pathway, glucose and glutamine uptake levels as well as related metabolic enzyme levels are normalized into the range between 0 and 1 across all samples. Subsequently, the normalized analyte levels (a) were used and a steady-state approximation (FIG. 16E) to calculate the energy production rate for each step (FIG. 16B). Several energy indices were defined based on the model. The energy production index (EPI) assesses the total energy production rate through glucose and glutamine metabolism, while the energy source index (ESI) measures the energy contribution ratio between glucose and glutamine. The glycolysis index (GI) weighs the contribution of glycolysis in total glucose-based energy production, and depends upon glucose uptake, as well as the levels of phosphofructokinase (PFK) and pyruvate kinase isozyme M2 (PKM2). In addition to the energy indices, we use the cAMP and cGMP levels to define an energy frustration index (EFI), and use the GSH level to define a redox frustration index (RFI).

SMILES: NC(CCCNC(=O)C12CC3CC(CC(C3)C1)C2)C(=O)O (stereo not drawn) [Compound 3, 5-(adamantane-1-carboxamido)-2-aminopentanoic acid]
- cell uptake of glutamine analog: dependence on temperature and on glutamine (U87/EGFRV3 cells): temperature-dependency and glutamine-dependency
- cell uptake of Compound 3 ([1]; siRNA knock-down of SLC1A5): inhibition of cell uptake
- Compound 3 fluorescence (uptake) ([1]; sodium free conditions): inhibition of Compound 3 fluorescence (uptake)
- competition with cellular glutamine (absorbance) (U87 cells): competes with the cellular glutamine
- cell growth / cell toxicity (cell growth): does not inhibit cell growth

SMILES: N[C@@H](CC(=O)NC12CC3CC(CC(C3)C1)C2)C(=O)O [Compound 8, N4-(adamantan-1-yl)asparagine]
- cell uptake of glutamine analog: dependence on temperature and on glutamine (U87/EGFRV3 cells): temperature-dependency and glutamine-dependency

SMILES: O=C(CCCC[C@@H]1SC[C@@H]2NC(=O)N[C@@H]21)N[C@H]1C(O)O[C@H](CO)[C@@H](O)[C@@H]1O (stereo partly drawn) [Gluc-Bio]
- uptake of Gluc-Bio (GBM39 single cells): inhibited by increasing the extracellular glucose concentration and by decreasing the temperature
- generation of NADH in the presence of Gluc-Bio (hexokinase; 0.5 mM glucose and 0.5 mM Gluc-Bio vs 0.5 mM glucose alone): much slower than that of glucose alone
- final amount of NADH generated (hexokinase; ATP much less than glucose, addition of Gluc-Bio): less NADH was generated
- substrate for hexokinase (hexokinase; conclusion from both experiments): is a substrate for hexokinase

SMILES: C#Cc1cccc(Nc2ncnc3cc(OCCOC)c(OCCOC)cc23)c1 [erlotinib]
- cell growth (number of cells as a function of days) (U87EGFRvIII cells [2]): not inhibited; also recorded: does not inhibit
- activities of HK2 (GBM39 cells): sharply reduced
- level of GSH (GBM39 cells): sharply reduced
- level of glucose uptake (GBM39 cells): sharply reduced
- glutamine uptake (U87EGFRvIII cells [3]; 1 uM erlotinib): increased
- glucose uptake (U87EGFRvIII cells [3]; 1 μM erlotinib): repressed
- levels of PFK and PKM2 (U87EGFRvIII cells [3]; 1 μM erlotinib): increased
- glucose uptake (U87EGFRvIII cells [3]; higher dose erlotinib (10 μM)): decreased
- glutamine uptake (U87EGFRvIII cells [3]; higher dose erlotinib (10 μM)): decreased
- metabolic enzymes (U87EGFRvIII cells [3]; higher dose erlotinib (10 μM)): repressed
- cellular energy production (EPI) (U87EGFRvIII cells [3]; higher drug concentration (10 μM)): inhibits cellular energy production
